Key:
Assay in all cases: area under the viability dose-response curve (AUC) (AUC (arbitrary units, max 500 = no viability loss)); higher = less sensitive (higher viability)
Conditions in all cases: exposure time: 120 h; concentration range: 0.1 nM - 10 µM, 6 doses
10F2 = tested on: 10F2 (fetal-II hepatoblastoma organoid with high liver markers)
Description: (§1)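 Patient-derived hepatoblastoma tumor organoids (about 50 organoids per well, 384-well plates, medium with 5% BME) were treated with the PMC pediatric cancer drug library. Each drug was tested in duplicate at 6 concentrations (0.1 nM to 10 µM, 10-fold steps).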

135F2 = tested on: 135F2 (fetal-II hepatoblastoma organoid with high liver markers)
Description: as §1

13E = tested on: 13E (embryonal-type hepatoblastoma organoid)
Description: as §1

13F2 = tested on: 13F2 (fetal-II hepatoblastoma organoid with high liver markers)
Description: as §1

17E = tested on: 17E (embryonal-type hepatoblastoma organoid)
Description: as §1

17F1 = tested on: 17F1 (fetal-I hepatoblastoma organoid with intermediate liver markers)
Description: as §1

22E = tested on: 22E (embryonal-type hepatoblastoma organoid)
Description: as §1

27F1 = tested on: 27F1 (fetal-I hepatoblastoma organoid with intermediate liver markers)
Description: as §1

3E = tested on: 3E (embryonal-type hepatoblastoma organoid)
Description: as §1

8F1 = tested on: 8F1 (fetal-I hepatoblastoma organoid with intermediate liver markers)
Description: as §1

96F1 = tested on: 96F1 (fetal-I hepatoblastoma organoid with intermediate liver markers)
Description: as §1

| SMILES | area under the viability dose-response curve (10F2) | area under the viability dose-response curve (135F2) | area under the viability dose-response curve (13E) | area under the viability dose-response curve (13F2) | area under the viability dose-response curve (17E) | area under the viability dose-response curve (17F1) | area under the viability dose-response curve (22E) | area under the viability dose-response curve (27F1) | area under the viability dose-response curve (3E) | area under the viability dose-response curve (8F1) | area under the viability dose-response curve (96F1) |
| --- | --- | --- | --- | --- | --- | --- | --- | --- | --- | --- | --- |
| Cc1cc(Nc2ncc(Cl)c(Nc3ccccc3S(=O)(=O)C(C)C)n2)c(OC(C)C)cc1C1CCNCC1 [Ceritinib] | 356 | 373 | 381 | 349 | 368 | 446 | 375 | 432 | 351 | 441 | 413 |
| CCn1c(-c2nonc2N)nc2cnc(Oc3cccc(NC(=O)c4ccc(OCCN5CCOCC5)cc4)c3)cc21 | 348 | 441 | 478 | 392 | 450 | 451 | 468 | 481 | 493 | 467 | 469 |
| CC(C)(C)c1nc(-c2cccc(NS(=O)(=O)c3c(F)cccc3F)c2F)c(-c2ccnc(N)n2)s1 [Dabrafenib] | 422 | 471 | 497 | 411 | 494 | > 500 | 486 | 497 | 491 | > 500 | 456 |
| CC1=C(/C=C/C(C)=C/C=C/C(C)=C\C(=O)O)C(C)(C)CCC1 [Isotretinoin] | > 500 | 496 | 468 | > 500 | 495 | > 500 | 472 | > 500 | 440 | > 500 | > 500 |
| CC(C)(C)c1cc(NC(=O)Nc2ccc(-c3cn4c(n3)sc3cc(OCCN5CCOCC5)ccc34)cc2)no1 [Quizartinib] | 474 | 489 | > 500 | 485 | 432 | 471 | 484 | > 500 | > 500 | 494 | 489 |
| CCNC(=O)C[C@@H]1N=C(c2ccc(Cl)cc2)c2cc(OC)ccc2-n2c(C)nnc21 [Molibresib] | 386 | 417 | 468 | 389 | 400 | 477 | 442 | 498 | 378 | 465 | 497 |
| Nc1cc(C(F)(F)F)c(-c2cc(N3CCOCC3)nc(N3CCOCC3)n2)cn1 [Buparlisib] | 385 | 440 | 413 | 413 | 416 | 454 | 425 | 436 | 383 | 447 | 449 |
| COc1ccc([C@@H](O)c2cc(-c3ncnc4cc(N5CCOCC5)ccc34)c(F)cc2Cl)nn1 [Nedisertib] | 404 | 463 | 453 | 394 | 409 | 486 | 462 | 493 | 435 | 479 | 462 |
| CC1(COc2ccc3c(c2)ncn3-c2ccc3cccc(N4CCC(N)CC4)c3n2)COC1 [Crenolanib] | 480 | 448 | > 500 | 446 | 487 | 479 | > 500 | > 500 | 466 | > 500 | 467 |
| C[C@H]1Oc2cc(cnc2N)-c2c(nn(C)c2C#N)CN(C)C(=O)c2ccc(F)cc21 [Lorlatinib] | 435 | 498 | 450 | 448 | 416 | 481 | 471 | 471 | 459 | 476 | 463 |
| C[C@H](NC(=O)CCC(F)(F)F)C(=O)N[C@@H]1C(=O)N(CCO)c2ncccc2-c2ccccc21 [Crenigacestat] | 389 | 479 | 482 | 418 | 482 | > 500 | 474 | 484 | 458 | 498 | 480 |
| CC1=C(/C=C/C(C)=C/C=C/C(C)=C/C(=O)Nc2ccc(O)cc2)C(C)(C)CCC1 [Fenretinide] | 418 | 430 | 446 | 469 | 426 | 443 | 418 | 484 | 386 | 470 | 430 |
| COCCNCc1ccc(-c2cc3nccc(Oc4ccc(NC(=O)C5(C(=O)Nc6ccc(F)cc6)CC5)cc4F)c3s2)nc1 [Sitravatinib] | 374 | 432 | 436 | 425 | 375 | 457 | 431 | 442 | 417 | 441 | 433 |
| COc1ncc(-c2nc3c(n2C(C)C)[C@H](c2ccc(Cl)cc2)N(c2cc(Cl)cn(C)c2=O)C3=O)c(OC)n1 [Siremadlin] | 200 | 328 | 383 | 246 | 318 | 395 | 414 | 359 | 306 | 373 | 385 |
| Nc1ncn([C@H]2C[C@H](O)[C@@H](CO)O2)c(=O)n1 [Decitabine (Guadecitabine)] | 375 | 440 | 485 | 392 | 461 | 466 | 477 | 487 | 453 | 478 | 455 |
| Cn1nnc2c(C(N)=O)ncn2c1=O [Temozolomide] | 468 | > 500 | > 500 | 487 | 462 | 494 | 490 | > 500 | 499 | > 500 | 480 |
| NC1(c2ccc(-c3nc4ccn5c(=O)[nH]nc5c4cc3-c3ccccc3)cc2)CCC1 [MK-2206] | 445 | 462 | 415 | 395 | 377 | 473 | 440 | 459 | 371 | 431 | 427 |

| SMILES | area under the viability dose-response curve (10F2) | area under the viability dose-response curve (135F2) | area under the viability dose-response curve (13E) | area under the viability dose-response curve (13F2) | area under the viability dose-response curve (17E) | area under the viability dose-response curve (17F1) | area under the viability dose-response curve (22E) | area under the viability dose-response curve (27F1) | area under the viability dose-response curve (3E) | area under the viability dose-response curve (8F1) | area under the viability dose-response curve (96F1) |
| --- | --- | --- | --- | --- | --- | --- | --- | --- | --- | --- | --- |
| CNC(=O)c1ccc(Nc2ncc(C(F)(F)F)c(NCc3nccnc3N(C)S(C)(=O)=O)n2)cc1 [Defactinib] | 465 | 454 | 443 | 442 | 449 | 466 | 469 | 455 | 454 | 466 | 443 |
| C[C@H](NC(=O)Cc1cc(F)cc(F)c1)C(=O)N[C@@H]1C(=O)N(C)c2ccccc2-c2ccccc21 | 392 | 472 | 472 | 388 | 430 | 478 | 493 | 441 | 406 | 456 | 497 |
| Cc1[nH]c2ccccc2c1CCNCc1ccc(/C=C/C(=O)NO)cc1 [Panobinostat] | 166 | 248 | 294 | 220 | 218 | 271 | 319 | 296 | 210 | 325 | 290 |
| C[C@@H]1COC(Nc2ccc3ncnc(Nc4ccc(OCc5nccs5)c(Cl)c4)c3c2)=N1 [Varlitinib] | 382 | 465 | 476 | 372 | 480 | 447 | 481 | 433 | 485 | 476 | 430 |
| CS(=O)(=O)N1CCN(Cc2cc3nc(-c4cccc5[nH]ncc45)nc(N4CCOCC4)c3s2)CC1 [Pictilisib] | 391 | 411 | 413 | 365 | 350 | 493 | 404 | 376 | 380 | 482 | 422 |
| COc1cc2nccc(Oc3ccc(NC(=O)C4(C(=O)Nc5ccc(F)cc5)CC4)cc3)c2cc1OC [Cabozantinib] | 488 | 491 | 478 | 442 | 439 | > 500 | 445 | > 500 | 457 | 489 | 475 |
| CN1CCN(CCOc2cc(OC3CCOCC3)c3c(Nc4c(Cl)ccc5c4OCO5)ncnc3c2)CC1 [Saracatinib] | 422 | 478 | 464 | 415 | 455 | 493 | 477 | 381 | 492 | 475 | 466 |
| C=CCNC1=C2C[C@@H](C)C[C@H](OC)[C@H](O)[C@@H](C)/C=C(\C)[C@H](OC(N)=O)[C@@H](OC)/C=C\C=C(/C)C(=O)NC(=CC1=O)C2=O [Tanespimycin] | 220 | 267 | 384 | 245 | 337 | 373 | 346 | 311 | 382 | 356 | 327 |
| C=CC(=O)N1CCC[C@@H](n2nc(-c3ccc(Oc4ccccc4)cc3)c3c(N)ncnc32)C1 [Ibrutinib] | 386 | 455 | 476 | 358 | 439 | 488 | 443 | 418 | > 500 | 480 | 438 |
| C=CCn1c(=O)c2cnc(Nc3ccc(N4CCN(C)CC4)cc3)nc2n1-c1cccc(C(C)(C)O)n1 [Adavosertib] | 328 | 353 | 404 | 354 | 336 | 383 | 423 | 386 | 335 | 438 | 361 |
| C=CC(=O)N1CC[C@H](n2nc(C#Cc3cc(OC)cc(OC)c3)c3c(N)ncnc32)C1 [Futibatinib] | 440 | > 500 | 372 | 370 | 323 | > 500 | 425 | > 500 | 236 | 482 | > 500 |
| CN1CCN(c2ccc3nc(-c4c(N)c5c(F)cccc5[nH]c4=O)[nH]c3c2)CC1 [Dovitinib] | 418 | 455 | 417 | 400 | 390 | 468 | 412 | 477 | 396 | 499 | 433 |
| CNC(=O)c1cc(Oc2ccc(NC(=O)Nc3ccc(Cl)c(C(F)(F)F)c3)cc2)ccn1 [Sorafenib] | 443 | 431 | 454 | 440 | 437 | 448 | 452 | 458 | 448 | 453 | 459 |
| CNc1nc(-c2nc3ccc(N4CCN(C)CC4)cc3n2Cc2ccccc2)cn2c(C)nnc12 | 328 | 309 | 411 | 260 | 433 | 460 | 415 | 479 | 321 | > 500 | 492 |
| CC(C)N(C[C@H]1O[C@@H](n2cnc3c(N)ncnc32)[C@H](O)[C@@H]1O)[C@H]1C[C@@H](CCc2nc3cc(C(C)(C)C)ccc3[nH]2)C1 [Pinometostat] | 432 | 489 | 493 | 486 | 453 | 472 | > 500 | 490 | > 500 | 497 | 469 |
| CN(Cc1cnc2nc(N)nc(N)c2n1)c1ccc(C(=O)N[C@@H](CCC(=O)O)C(=O)O)cc1 [Methotrexate] | 429 | 294 | 381 | 274 | 451 | 334 | 452 | 366 | 483 | 382 | 345 |
| Cc1nc(Nc2ncc(C(=O)Nc3c(C)cccc3Cl)s2)cc(N2CCN(CCO)CC2)n1 [Dasatinib] | 473 | 458 | 397 | 379 | 463 | 488 | 461 | 488 | 315 | 473 | 479 |

Source: the supplement of paper PMC11579375
